# Literature values as cited in patent US5530141A, “2,4-diaryl-1,3-dithiolanes; 2,4-diaryl-1,3-dioxolanes; 2,4-diaryl-1,3-oxathiolanes; and 2,5-diaryl-1,3-oxathiolanes for the treatment of disorders mediated by platelet activating factor or products of 5-lipoxygenase” (Center for Innovative Technology, priority 1992, dated 1996).
# Assays:
# [1] = cited from earlier work
# PAF receptor sites = settings: cited from earlier work
# [2] = system: PAF-induced rat cutaneous vascular permeability; settings: cited from earlier work
# 5-lipoxygenase = settings: cited from earlier work
Molecule,plasma half life [1] [min],inhibits the binding of tritiated PAF to PAF receptor sites (PAF receptor sites; Hwang et al. 1985),"potency of trans-L-652,731 relative to cis-L-652,731 (PAF receptor sites; more potent than cis-L-652,731)","inhibition of PAF-induced rat cutaneous vascular permeability ([2]; dosage of 30 mg/kg body weight, rat)",oral activity ([2]; oral),effect on the enzyme 5-lipoxygenase (5-lipoxygenase)
1-O-alkyl-2-acetyl-sn-glycerol-3-phosphorylcholine [PAF],2 to 4,,,,,
"COc1cc([C@H]2CC[C@H](c3cc(OC)c(OC)c(OC)c3)O2)cc(OC)c1OC (relative stereo) [L-652,731, trans-2,5-bis-(3,4,5-trimethoxyphenyl) tetrahydrofuran]",,inhibits the binding of tritiated PAF to PAF receptor sites,approximately 1000 times,inhibit PAF-induced rat cutaneous vascular permeability,orally active,no effect on the enzyme 5-lipoxygenase
